Reference: PubChem BioAssay AID2060885 (Molecular Pharmacology Branch, DTP, NCI, 2025)
Values joined by “and” are separate entries in the source; they are usually repeats but may differ in a detail not shown here. Equal values may be shown once.

Test system: NCI-H23 complex spheroids with HUVEC/MSC, viability
Experiment: Anticancer human tumor NCI-H23 cell line growth inhibition [RAS];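 for viability, T/C: 100% = DMSO vehicle control viability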
Conditions: for viability, T/C: stronger effect = lower value
Text: RAS pathway inhibitors in Combinations in Complex Spheroids
A high-throughput screen of multi-cell type tumor spheroids was designed to identify active combinations of RAS pathway inhibitors and targeted small molecules. Complex spheroids include a stromal component modeled by human endothelial cells (HUVEC) and fibroblasts modeled by human mesenchymal stem cells (MSCs). The concentration ranges selected for each drug and investigational agent were based upon clinically achievable concentrations if the clinical Cmax of the agent was known.
Compounds. The drugs and investigational agents: abemaciclib (NSC768073), cobimetinib (NSC768068), divarasib (GDC6063, NSC841802), docetaxel (NSC628503), GDC-1971 (RLY-1971, NSC841576), gemcitabine (NSC613327), inavolisib (NSC800729), ipatasertib (NSC767898), KB-0742 (NSC834161), MRTX-1133 (NSC836407), osimertinib (NSC779217), RMC-4630 (NSC839698), RMC-6236 (NSC851965), RMC-6291 (NSC852671), Ro-3306 (NSC812927), sapanisertib (NSC764658), SN-38 (NSC673596), staurosporine (NSC755774), SY5609 (NSC837396), and tovorafenib (DAY101, NSC766906), were obtained from the National Cancer Institute (NCI) Developmental Therapeutics Program Chemical Repository. The FDA-approved anticancer drug set is available from the NCI Developmental Therapeutics Program. […] The stock solutions were prepared in dimethyl sulfoxide (DMSO, Sigma-Aldrich, St. Louis, MO, cat. D2650) at 800-fold the tested concentration and stored at -70 degrees C prior to their use. All drugs and investigational agents were tested over a range starting from a high concentration at or near the clinical Cmax and decreasing in half-log increments. If the clinical Cmax for an agent had not been determined, the highest concentration tested was 10 microM.
Cell Culture. All cells were maintained in an incubator at 37 degrees C and 5% CO2 with 95% humidity. The PDC lines were cultured according to standard operating procedures established by the NCI PDMR. All PDCs were thawed and cultured in Matrigel-coated flasks prepared with a working solution of 1X Ham's F-12 nutrient mix, without supplementation (Invitrogen, Waltham, MA, cat. 11765054), 100 U/mL penicillin-streptomycin (Invitrogen, cat. 15140122), and 2.5% Matrigel (Corning Inc., Corning, NY, cat. 354248) for the first three passages. The 362531-283-R-J2-PDC and 782815-120-R-J1-PDC lines were cultured in 6C/Colon 1B media, which includes advanced DMEM/F-12 (Thermo Fisher Scientific, cat. 12634028), 10 mM HEPES (Thermo Fisher Scientific, cat. 15630080), 1X GlutaMAX supplement (Thermo Fisher Scientific, cat. 35050061), 0.1 mg/mL primocin (InvivoGen, San Diego, CA, cat. ant-pm-2), 10% defined fetal bovine serum, heat inactivated (HyClone Laboratories Inc., Logan, UT, cat. SH30070.03HI), 50% L-WRN conditioned media (ATCC, cat. CRL-3276), 1.25 mM N-Acetyl-L-cysteine (Sigma-Aldrich, cat. A9165), 10 mM nicotinamide (Sigma-Aldrich, cat. N0636), 1X B-27 supplement (Thermo Fisher Scientific, cat. 17504044), 1X N-2 supplement (Thermo Fisher Scientific, cat. 17502048), 50 ng/mL human EGF (Thermo Fisher Scientific, cat. PHG0311), and 10 microM Y-27632 dihydrochloride (Tocris Bioscience, cat. 1254). The K12877-001-R-J1-PDC line was cultured in 6I media, which includes all 6C/Colon 1B media plus 10 ng/mL human FGF-10 (PeproTech, cat. 100-26), 1 ng/mL human FGF-2 (PeproTech, cat. 100-18B), 1 µM prostaglandin E2 (Tocris Bioscience, cat. 2296), […] hydrocortisone (Sigma-Aldrich, cat. H4001), and […] bovine insulin (Sigma-Aldrich, cat. I6634). The K86415-001-R-J1-PDC line was cultured in 6D media, which includes all 6C/Colon 1B media components minus the L-WRN conditioned media. The 485176-168-R4-J1-PDC was cultured in PANC media, which includes all 6C/Colon 1B media plus 100 ng/mL human FGF-10 (PeproTech, cat. 100-26), 500 nM SB-431542 (Selleckchem, cat. S1067), and 10 nM gastrin (Tocris Bioscience, cat. 3006). […]

[1] = curve of first compound, second compound 0.000949 µM
[2] = curve of first compound, second compound 0.003 µM
[3] = curve of first compound, second compound 0.00949 µM
[4] = curve of first compound, second compound 0.03 µM
[5] = curve of first compound, second compound 0.0949 µM
[6] = curve of first compound, second compound 0.3 µM
[7] = second compound 0.000949 µM, first compound 0.0316 µM
[8] = second compound 0.000949 µM, first compound 0.1 µM
[9] = second compound 0.000949 µM, first compound 0.316 µM
[10] = second compound 0.000949 µM, first compound 1 µM
[11] = second compound 0.003 µM, first compound 0.0316 µM
[12] = second compound 0.003 µM, first compound 0.1 µM
[13] = second compound 0.003 µM, first compound 0.316 µM
[14] = second compound 0.003 µM, first compound 1 µM
[15] = second compound 0.00949 µM, first compound 0.0316 µM
[16] = second compound 0.00949 µM, first compound 0.1 µM
[17] = second compound 0.00949 µM, first compound 0.316 µM
[18] = second compound 0.00949 µM, first compound 1 µM
[19] = second compound 0.03 µM, first compound 0.0316 µM
[20] = second compound 0.03 µM, first compound 0.1 µM
[21] = second compound 0.03 µM, first compound 0.316 µM
[22] = second compound 0.03 µM, first compound 1 µM
[23] = second compound 0.0949 µM, first compound 0.0316 µM
[24] = second compound 0.0949 µM, first compound 0.1 µM
[25] = second compound 0.0949 µM, first compound 0.316 µM
[26] = second compound 0.0949 µM, first compound 1 µM
[27] = second compound 0.3 µM, first compound 0.0316 µM
[28] = second compound 0.3 µM, first compound 0.1 µM
[29] = second compound 0.3 µM, first compound 0.316 µM
[30] = second compound 0.3 µM, first compound 1 µM

CCN1CCN(Cc2ccc(Nc3ncc(F)c(-c4cc(F)c5nc(C)n(C(C)C)c5c4)n3)nc2)CC1
viability, T/C (compound 0.00316 µM): 100% and 104% (2×) and 103% | viability, T/C (compound 0.01 µM): 92% [middle of 4 runs] | viability, T/C (compound 0.0316 µM): 78% [middle of 4 runs] | viability, T/C (compound 0.1 µM): 70.2% [middle of 4 runs] | viability, T/C (compound 0.316 µM): 58% [middle of 4 runs] | IC50 (curve of compound): > 1000 nM and 434 nM and 646 nM

CC1(O)CCCC1n1c(=O)c(C(F)F)cc2cnc(NC3CCN(S(C)(=O)=O)CC3)nc21 (centres undefined) + CCn1c(-c2cccnc2C(C)OC)c2c3cc(ccc31)N1CCOC(CC(NC(=O)C(C(C)C)N(C)C(=O)C3(F)CCN(C(=O)C#CC(C)(C)N(C)C)CC3)C(=O)N3CCCC(N3)C(=O)OCC(C)(C)C2)C1
IC50 [1]: < 31.6 nM | IC50 [2]: < 31.6 nM | IC50 [3]: < 31.6 nM | IC50 [4]: < 31.6 nM | IC50 [5]: < 31.6 nM | IC50 [6]: < 31.6 nM | viability, T/C [7]: 27.5% | viability, T/C [8]: 18.5% | viability, T/C [9]: 15% | viability, T/C [10]: 21.3% | viability, T/C (second compound 0.000949 µM, first compound 3.16 µM): 18.9% | viability, T/C (second compound 0.000949 µM, first compound 10 µM): 1.72% | viability, T/C [11]: 24.7% | viability, T/C [12]: 16.5% | viability, T/C [13]: 17.4% | viability, T/C [14]: 17.5% | viability, T/C (second compound 0.003 µM, first compound 3.16 µM): 20.4% | viability, T/C (second compound 0.003 µM, first compound 10 µM): 1.47% | viability, T/C [15]: 25.2% | viability, T/C [16]: 14.7% | viability, T/C [17]: 15.8% | viability, T/C [18]: 17.1% | viability, T/C (second compound 0.00949 µM, first compound 3.16 µM): 17.4% | viability, T/C (second compound 0.00949 µM, first compound 10 µM): 2.12% | viability, T/C [19]: 23% | viability, T/C [20]: 16.8% | viability, T/C [21]: 15.1% | viability, T/C [22]: 18.7% | viability, T/C (second compound 0.03 µM, first compound 3.16 µM): 14.6% | viability, T/C (second compound 0.03 µM, first compound 10 µM): 2.81% | viability, T/C [23]: 19.2% | viability, T/C [24]: 17.1% | viability, T/C [25]: 17.8% | viability, T/C [26]: 15.5% | viability, T/C (second compound 0.0949 µM, first compound 3.16 µM): 14.9% | viability, T/C (second compound 0.0949 µM, first compound 10 µM): 2.88% | viability, T/C [27]: 19.5% | viability, T/C [28]: 16.9% | viability, T/C [29]: 15.1% | viability, T/C [30]: 16.7% | viability, T/C (second compound 0.3 µM, first compound 3.16 µM): 15.6% | viability, T/C (second compound 0.3 µM, first compound 10 µM): 2.05%

CC(Nc1ccc2c(c1)OCCn1cc(N3C(=O)OCC3C(F)F)nc1-2)C(N)=O (centres undefined)
viability, T/C (compound 0.0316 µM): 93.5% [middle of 4 runs] | viability, T/C (compound 0.1 µM): 89.5% [middle of 4 runs] | viability, T/C (compound 0.316 µM): 70.2% and 82.1% and 76.3% (2×) | viability, T/C (compound 1 µM): 78.9% [middle of 4 runs] | viability, T/C (compound 3.16 µM): 71.8% [middle of 4 runs] | viability, T/C (compound 10 µM): 69.6% [middle of 4 runs] | IC50 (curve of compound): > 10000 nM

Nc1ccn(C2OC(CO)C(O)C2(F)F)c(=O)n1 (centres undefined) + CCn1c(-c2cc(N3CCN(C)CC3)cnc2C(C)OC)c2c3cc(ccc31)-c1csc(n1)CC(NC(=O)C1CC1C)C(=O)N1CCCC(N1)C(=O)OCC(C)(C)C2
IC50 [1]: < 3.16 nM | IC50 [2]: < 3.16 nM | IC50 [3]: < 3.16 nM | IC50 [4]: < 3.16 nM | IC50 [5]: < 3.16 nM | IC50 [6]: < 3.16 nM | viability, T/C (second compound 0.000949 µM, first compound 0.00316 µM): 16.9% | viability, T/C (second compound 0.000949 µM, first compound 0.01 µM): 2.1% | viability, T/C [7]: 2.03% | viability, T/C [8]: 1.87% | viability, T/C [9]: 1.82% | viability, T/C [10]: 1.3% | viability, T/C (second compound 0.003 µM, first compound 0.00316 µM): 12.9% | viability, T/C (second compound 0.003 µM, first compound 0.01 µM): 1.96% | viability, T/C [11]: 1.42% | viability, T/C [12]: 1.52% | viability, T/C [13]: 2.04% | viability, T/C [14]: 1.24% | viability, T/C (second compound 0.00949 µM, first compound 0.00316 µM): 12.6% | viability, T/C (second compound 0.00949 µM, first compound 0.01 µM): 1.87% | viability, T/C [15]: 2.05% | viability, T/C [16]: 1.74% | viability, T/C [17]: 2.15% | viability, T/C [18]: 2.22% | viability, T/C (second compound 0.03 µM, first compound 0.00316 µM): 12% | viability, T/C (second compound 0.03 µM, first compound 0.01 µM): 2.82% | viability, T/C [19]: 2.27% | viability, T/C [20]: 2.33% | viability, T/C [21]: 1.56% | viability, T/C [22]: 1.99% | viability, T/C (second compound 0.0949 µM, first compound 0.00316 µM): 12.2% | viability, T/C (second compound 0.0949 µM, first compound 0.01 µM): 3.4% | viability, T/C [23]: 3.37% | viability, T/C [24]: 2.4% | viability, T/C [25]: 2.14% | viability, T/C [26]: 2.59% | viability, T/C (second compound 0.3 µM, first compound 0.00316 µM): 15.5% | viability, T/C (second compound 0.3 µM, first compound 0.01 µM): 5.87% | viability, T/C [27]: 3.63% | viability, T/C [28]: 3.14% | viability, T/C [29]: 2.91% | viability, T/C [30]: 3.48%

CCc1c2c(nc3ccc(O)cc13)-c1cc3c(c(=O)n1C2)COC(=O)[C@]3(O)CC
viability, T/C (compound 0.000949 µM): 91.1% [middle of 4 runs] | viability, T/C (compound 0.003 µM): 59.1% [middle of 4 runs] | viability, T/C (compound 0.00949 µM): 32.2% [middle of 4 runs] | viability, T/C (compound 0.03 µM): 14.4% [middle of 4 runs] | viability, T/C (compound 0.0949 µM): 8.18% [middle of 4 runs] | viability, T/C (compound 0.3 µM): 6.26% [middle of 4 runs] | IC50 (curve of compound): 4.43 nM [middle of 4 runs]
